The values below come from US20260177556A1, “PROXIMITY-BASED LABELING OF SIALYLATED GLYCOPROTEINS” (THE TRUSTEES OF PRINCETON UNIVERSITY, priority 2022, published 2026).

Common to all, as to type: cell-based
In assay [1] the test system is HeLa cells. Nature of the assay: Mass spectrometry-based metabolomic quantification of sialidase-treated cells. As to conditions: sialidase-treated vs untreated HeLa cells, 72 hours. The protocol:
In transparent 10 cm dishes (×6), HeLa cells were grown for 72 hours in 5 mL complete DMEM supplemented with 10% FBS in presence or absence of neuraminidase (20 U/mL). After 72 hours, the cells were washed with DPBS (3×5 mL) and incubated with TrypLE (1 mL) for 15 minutes at 37° C. The cells were transferred to 15 mL conical tubes using 4 mL DPBS to wash the plates. The cells were pelleted at 500×G for 4 minutes and resuspended in 1 mL DPBS. The cells were counted, and 500′000 cells/experiment were transferred to 1.5 mL Eppendorf tubes. The cells were pelleted (500×g for 4 min), the supernatant removed, and the cells were lysed with ice cold 80% MeOH (60 μL) for 30 minutes at 0° C. The cell lysate was clarified by centrifugation at 20′000×G for 25 minutes and the lysates were transferred to new 0.5 mL Eppendorf tubes and stored at −80° C. until mass spectrometry analysis.
HPLC-grade water, methanol, and acetonitrile were obtained from Thermo Fisher Scientific. Supernatant sample was thawed at room temperature and kept at 4° C. in an autosampler. Samples were analyzed using a Q Exactive Plus mass spectrometer coupled to Vanquish UHPLC system (Thermo Fisher Scientific). LC separation was achieved using a XBridge BEH Amide column (2.1 mm×150 mm, 2.5-μm particle size, 130-A pore size; Waters, Milford, MA, USA) using a gradient of solvent A (20 mM ammonium acetate+20 mM ammonium hydroxide in 95:5 water/acetonitrile [pH 9.45]) and solvent B (acetonitrile). Flow rate was […]. The gradient was 0 min, 90% B; 2 min, 90% B; 3 min, 75%; 7 min, 75% B; 8 min, 70%, 9 min, 70% B; 10 min, 50% B; 12 min, 50% B; 13 min, 25% B; 14 min, 25% B; 16 min, 0% B, 20.5 min, 0% B; 21 min, 90% B; 25 min, 90% B. The column temperature was 25° C., and the injection volume was 5 μL. The mass spectrometer is operated in full scan mode with separate runs in positive mode and negative mode covering m/z 70-1000, with resolution 140,000 at m/z 200, AGC target 5E6, maximum injection time 200 ms.
Data analyses were performed using El-Maven and the metabolites identified with an in-house library using authentic standards.^3 Metabolite signal intensity were then further processed in Excel (median correction) and Graphpad Prism (transformation, t-test, and volcano plot generation).

Assay [2] has as its system HeLa cells. The assay is described as follows: Colorimetric zinc assay. The protocol:
The zinc assay was purchased from Abcam (ab102507), and the experiment was performed according to the procedure below, adapted from the supplier's instructions.
In transparent 10 cm dishes, HeLa cells were grown in complete medium (DMEM, supplemented with 10% FBS) in presence (×3) or absence (×3) of VC-sialidase (20 mU/mL medium) for 96 hours. The medium was exchanged every 24 hours and fresh sialidase was added at those timepoints. After 96 hours, the medium was removed and DPBS (5 mL) was added. The cells were scraped, transferred to 15 mL conical tubes, and pelleted at 400×g for 5 minutes. The supernatant was removed, and the cells were lysed in 50 μL EDTA-free lysis buffer lysed by sonication (bioruptor) at 4° C. for 10 minutes.
The lysate was clarified at 18′000×g for 15 minutes and analyzed by BCA assay. 30 µL of the cell lysate was transferred to a 1.5 mL Eppendorf tube containing 30 μL of 7% TCA to precipitate proteins. The mixture was clarified at 18′000×g for 5 minutes and […] of the resulting solution were used for the zinc detection assay.

Assay [3] relates to HEK293T, HeLa or primary cervical epithelial cells. The assay is described as follows: Confocal microscopy of biotinylation after glycomap experiment. As to conditions: after Ac4ManNAz, 5 μM reagent, irradiation in presence of biotin-diazirine. On the procedure: Cells (HEK293T, HeLa or primary cervical epithelial cells) (approx. 2×10^4 cells) were incubated in poly-lysine coated 8 well chamber slides in complete DMEM (200 μL) containing Ac4ManNAz (100 μM) at 37° C. for 48 hours. The cells were washed with DPBS (3×200 μL) and then incubated in complete DMEM (200 μL) containing DBCO-iridium (5 μM) or DBCO-biotin (5 μM) at 37° C. for 24 hours. The cells were washed with DPBS (3×200 μL) and irradiated in DMEM (no phenol-red, 200 μL) containing biotin-diazirine (250 μM) at room temperature for 20 minutes in the biophotoreactor (blue LEDs). The cells were washed with DPBS (3×200 μL) and fixed with prewarmed 4% paraformaldehyde (200 μL) at room temperature for 30 min. The cells were washed with DPBS (2×200 μL) and blocked with 3% BSA in DPBS (200 μL) at room temperature for 1 hour. The blocking buffer was replaced with fresh 3% BSA in DPBS (200 μL) containing Hoechst (1:1000), and Streptavidin-AlexaFluor 555 conjugate (1:1000). The cells were stained in the dark at room temperature for 1 hour and then stored in the dark at 4° C. The cells were imaged on a NIKON A1R-SI microscope (Nikon Instruments, Inc., Melville, NY) at 20× magnification. The images were processed with Fiji-ImageJ. Images shown are representative of the multiple cross-sectional images taken during each session.

Assay [4] concerns sialylated cell-surface glycoproteins of HeLa cells. Nature of the assay: Glycomap labeling efficiency by streptavidin western blot densitometry. The settings on record: for Experiment/control: ratio of densitometry readouts. On the procedure: HeLa cells (approx. 0.4×10^6 cells) were incubated in 6 well dishes in complete DMEM (2 mL) containing Ac4ManNAz (100 μM) at 37° C. for 72 hours. The cells were washed with DPBS (3×1 mL) and then incubated in complete DMEM (2 mL) containing DBCO-iridium (5 μM) or DBCO-biotin (5 μM) at 37° C. for 24 hours. The cells were washed with DPBS (3×1 mL) and irradiated in DMEM (no phenol-red, 200 μL) containing biotin-diazirine (250 μM) at room temperature for 20 minutes in the biophotoreactor (blue LEDs). The cells were washed with DPBS (3×1 mL), scraped in DPBS (1 mL), and transferred to 1.5 mL Eppendorf tubes. The cells were pelleted at 400×G for 5 minutes and resuspended in Ripa lysis buffer (500 μL). The cells were lysed by sonication (bioruptor) at 4° C. for 10 minutes (20 cycles, 15 sec on 15 sec off at 100% power). The protein concentration was normalized by BCA assay and the lysate was analyzed by Western blot (20 μg of protein per lane, 12% gel, 150 V). The gel was transferred via iBlot 2 to an NC membrane Following transfer, the membrane was immersed in Odyssey Blocking Buffer (Li-Cor, 927-50000) and incubated at room temperature for 1 hour. The blocking buffer was replaced with fresh blocking buffer (10 mL) containing anti-Actin antibody (10 μL) and the membrane was rocked for 1 hour. The buffer was decanted, and the membranes were washed with 1×TBST (4×5 min) and water (3×5 sec). […]
Based on the Western blot results shown in FIG. 2B the efficiency of labeling via Glycomap can be calculated using densitometry. […]
The whole calculation is listed below: • Densitometry readout DBCO-Iridium full experiment: 108′442 • Densitometry readout DBCO-Iridium control: 6′164 • Experiment/control: 17.6 • Densitometry readout DBCO-Biotin full experiment: 158′335 • Densitometry readout DBCO-Biotin control: 5′937 • Experiment/control: 26.7 • Comparison: 17.6/26.7=0.7 tags per catalyst.

Regarding “VC-Sia: sialidase isolated from Vibrio cholerae, cleaves α2,3-, α2,6-, or α2,8-linked sialic acids”, in the assay on HeLa cells [1], the “level of cytidine diphosphate choline (CDP-choline)” value is “significantly increased”, the “level of cytidine diphosphate ethanolamine (CDP-Etn)” value is listed as “significantly increased”, the “level of phosphate ethanolamine (P-Etn)” value is “significantly increased” and the most metabolite levels entry was “minimally affected”. Also, the “Zinc concentration (nmol zinc/mg of protein-free lysate)” value in the assay with HeLa cells [2] (HeLa cells, VC-sialidase 20 mU/mL medium, 96 hours, single replicates) was 1.4 nmol/mg. The “zinc level vs untreated cells” value in the assay on HeLa cells [2] (sialidase-treated vs untreated HeLa cells) is given as “significantly higher”.
Consider “[Ir(dCO2HdFCF3ppy)2(bpy-dbco) [DBCO-iridium]”, for which, in assay [3], the “biotinylation by confocal microscopy” value is given as “strong biotinylation”. The “tags per catalyst (labeling efficiency)” value in assay [4] (HeLa cells, Ac4ManNAz 100 μM, streptavidin blot densitometry, relative to DBCO-biotin) was determined as 0.7 tags per catalyst. Besides, in assay [4], the Experiment/control turned out to be 17.6.
Regarding `O=C(CCCC[C@@H]1SC[C@@H]2NC(=O)N[C@@H]21)NCC(C(=O)NCCC(=O)N1Cc2ccccc2C#Cc2ccccc21)S(=O)(=O)O` (some centres unmarked) [DBCO-biotin, DBCO-Sulfo-Link-biotin, reference compound], the “biotinylation by confocal microscopy” value in assay [3] is reported as “strong biotinylation”. Besides, the Experiment/control in assay [4] amounted to 26.7.
